From ChEMBL document CHEMBL4364280 (Eur J Med Chem, 2019)
The source made the active and inactive calls. The rule behind the calls is not given here.

Key:
[1] = target: 5-hydroxytryptamine receptor 7 (Homo sapiens, UniProt P34969); assay: Displacement of [3H]-5-CT from human 5-HT7R expressed in human HEK293 cells assessed as inhibitory constant incubated for 1 hr by radioligand binding assay; type: cell-based
D(2) dopamine receptor = D(2) dopamine receptor (Homo sapiens, UniProt P14416); assay: Displacement of [3H]-raclopride from human D2L receptor expressed in human HEK293 cells incubated for 1 hr by radioligand binding assay; type: cell-based
[2] = target: T1, 5-hydroxytryptamine receptor 1A (Homo sapiens, UniProt P08908); assay: Displacement of [3H]-8-OH-DPAT from human 5-HT1A expressed in human HEK293 cells assessed as inhibitory constant incubated for 1 hr by radioligand binding assay; type: cell-based
T1 sequence (P08908 whole entry): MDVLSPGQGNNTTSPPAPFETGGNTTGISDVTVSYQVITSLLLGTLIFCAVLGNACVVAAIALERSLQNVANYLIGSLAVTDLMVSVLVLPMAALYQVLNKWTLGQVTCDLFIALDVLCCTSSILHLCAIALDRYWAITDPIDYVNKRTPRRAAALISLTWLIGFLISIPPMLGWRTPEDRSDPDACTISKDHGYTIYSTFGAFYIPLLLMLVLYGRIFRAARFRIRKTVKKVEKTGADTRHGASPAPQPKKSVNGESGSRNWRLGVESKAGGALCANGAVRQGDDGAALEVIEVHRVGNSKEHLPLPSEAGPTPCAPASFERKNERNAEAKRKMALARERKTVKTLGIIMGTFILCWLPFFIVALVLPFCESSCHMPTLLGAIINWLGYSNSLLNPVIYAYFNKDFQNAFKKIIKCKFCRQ

[3] = target: T2, 5-hydroxytryptamine receptor 6 (Homo sapiens, UniProt P50406); assay: Displacement of [3H]-LSD from human 5-HT6R expressed in human HEK293 cells incubated for 1 hr by radioligand binding assay; type: cell-based
[4] = target: 5-hydroxytryptamine receptor 2A (Homo sapiens, UniProt P28223); assay: Displacement of [3H]-Ketanserin from human 5-HT2A expressed in CHO-K1 cells incubated for […] by radioligand binding assay; type: cell-based
[5] = target: T2, 5-hydroxytryptamine receptor 6; assay: Agonist activity at recombinant human 5HT6 receptor expressed in CHOK1 cells co-expressing Galpha16/aequorin assessed as increase in calcium mobilization and measured for 60 secs in presence of coelenterazine by luminescence assay relative to control; type: functional, cell-based
Rattus norvegicus [6] = assay: Antidepressant activity in Wistar rat assessed as reduction in immobility at 10 mg/kg, ip measured after 30 mins by forced swim test; type: functional, organism-based
[7] = Mutagenicity in Salmonella typhimurium TA100 assessed as increase in revertant colonies at 10 uM preincubated for 90 mins and measured after 72 hrs by Ames test; type: toxicity; details: salmonella enterica subsp. enterica serovar typhimurium
SH-SY5Y = assay: Cytotoxicity against human SH-SY5Y cells assessed as decrease in cell viability at 100 uM incubated for 72 hrs by MTS assay; type: cell-based
[8] = Ratio of test compound CC50 to doxorubicin CC50 for cytotoxicity against human SH-SY5Y cells incubated for 72 hrs by MTS assay; type: cell-based
[9] = Mutagenicity in Salmonella typhimurium TA100 assessed as fold increase over MCB at 1 uM preincubated for 90 mins and measured after 72 hrs by Ames test; type: toxicity; details: salmonella enterica subsp. enterica serovar typhimurium
[10] = Mutagenicity in Salmonella typhimurium TA100 assessed as increase in revertant colonies at 1 uM preincubated for 90 mins and measured after 72 hrs by Ames test; type: toxicity; details: salmonella enterica subsp. enterica serovar typhimurium
[11] = Selectivity ratio of CC50 for cytotoxicity against human SH-SY5Y cells to ratio of Ki for human 5-HT6R expressed in human HEK293 cells
[12] = target: T2, 5-hydroxytryptamine receptor 6; assay: Antagonist activity at recombinant human 5HT6 receptor expressed in CHOK1 cells co-expressing Galpha16/aequorin assessed as reduction in serotonin-induced calcium mobilization flux preincubated for 30 mins followed by serotonin addition in presence of coelenterazine h by luminescence assay; type: functional, cell-based
Rattus norvegicus [13] = assay: Antidepressant activity in Wistar rat assessed as reduction in immobility at 0.1 to 1 mg/kg, ip measured after 60 mins by forced swim test; type: functional, organism-based
[14] = Mutagenicity in Salmonella typhimurium TA100 assessed as fold increase over MCB at 10 uM preincubated for 90 mins and measured after 72 hrs by Ames test; type: toxicity; details: salmonella enterica subsp. enterica serovar typhimurium
Rattus norvegicus [15] = assay: Antidepressant activity in Wistar rat assessed as rear movement moved at 1 mg/kg, ip pretreated for 60 mins and measured for 5 mins by open field test (reference value: 68 +/- 7); type: functional
Rattus norvegicus [16] = assay: Antidepressant activity in Wistar rat assessed as total distance moved at 1 mg/kg, ip pretreated for 60 mins and measured for 5 mins by open field test (reference value: 929 +/- 36 cm); type: functional
Rattus norvegicus [17] = assay: Antidepressant activity in Wistar rat assessed as ambulation-X movement moved at 1 mg/kg, ip pretreated for 60 mins and measured for 5 mins by open field test (reference value: 213 +/- 13); type: functional
Rattus norvegicus [18] = assay: Antidepressant activity in Wistar rat assessed as reduction in immobility at 1 mg/kg, ip measured after 60 mins by forced swim test; type: functional; design: scale not given: the % may be the effect or the level left
Rattus norvegicus [19] = assay: Antidepressant activity in Wistar rat assessed as ambulation-Y movement moved at 1 mg/kg, ip pretreated for 60 mins and measured for 5 mins by open field test (reference value: 187 +/- 14); type: functional
Rattus norvegicus [20] = assay: Antidepressant activity in Wistar rat assessed as reduction in immobility at 0.1 mg/kg, ip measured after 60 mins by forced swim test; type: functional, organism-based
Rattus norvegicus [21] = assay: Antidepressant activity in Wistar rat assessed as ambulation-X movement moved at 0.3 mg/kg, ip pretreated for 60 mins and measured for 5 mins by open field test (reference value: 190 +/- 12); type: functional
Rattus norvegicus [22] = assay: Antidepressant activity in Wistar rat assessed as reduction in immobility at 0.3 to 3 mg/kg, ip measured after 60 mins by forced swim test; type: functional; design: scale not given: the % may be the effect or the level left
Rattus norvegicus [23] = assay: Antidepressant activity in Wistar rat assessed as ambulation-Y movement moved at 0.3 mg/kg, ip pretreated for 60 mins and measured for 5 mins by open field test (reference value: 187 +/- 15); type: functional
Rattus norvegicus [24] = assay: Antidepressant activity in Wistar rat assessed as rear movement moved at 0.3 mg/kg, ip pretreated for 60 mins and measured for 5 mins by open field test (reference value: 57 +/- 6); type: functional
Rattus norvegicus [25] = assay: Antidepressant-like activity in Wistar rat assessed as total distance moved at 0.3 mg/kg, ip pretreated for 60 mins and measured for 5 mins by open field test (reference value: 2165 +/- 119 cm); type: functional

Sequence of 5-hydroxytryptamine receptor 7 (P34969 whole entry): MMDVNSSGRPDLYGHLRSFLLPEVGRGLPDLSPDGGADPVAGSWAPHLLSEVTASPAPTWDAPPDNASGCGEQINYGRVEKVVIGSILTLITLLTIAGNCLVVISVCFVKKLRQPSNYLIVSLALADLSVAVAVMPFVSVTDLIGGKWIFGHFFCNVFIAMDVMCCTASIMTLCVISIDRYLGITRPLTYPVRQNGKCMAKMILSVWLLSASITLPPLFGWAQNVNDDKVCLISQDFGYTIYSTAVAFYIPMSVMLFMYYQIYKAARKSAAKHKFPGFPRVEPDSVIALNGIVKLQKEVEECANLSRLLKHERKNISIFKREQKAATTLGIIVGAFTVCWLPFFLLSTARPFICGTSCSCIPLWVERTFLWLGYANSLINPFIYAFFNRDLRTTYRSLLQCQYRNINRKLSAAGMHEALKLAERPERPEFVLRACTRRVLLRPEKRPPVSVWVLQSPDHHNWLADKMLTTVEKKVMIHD
Sequence of D(2) dopamine receptor (P14416 whole entry): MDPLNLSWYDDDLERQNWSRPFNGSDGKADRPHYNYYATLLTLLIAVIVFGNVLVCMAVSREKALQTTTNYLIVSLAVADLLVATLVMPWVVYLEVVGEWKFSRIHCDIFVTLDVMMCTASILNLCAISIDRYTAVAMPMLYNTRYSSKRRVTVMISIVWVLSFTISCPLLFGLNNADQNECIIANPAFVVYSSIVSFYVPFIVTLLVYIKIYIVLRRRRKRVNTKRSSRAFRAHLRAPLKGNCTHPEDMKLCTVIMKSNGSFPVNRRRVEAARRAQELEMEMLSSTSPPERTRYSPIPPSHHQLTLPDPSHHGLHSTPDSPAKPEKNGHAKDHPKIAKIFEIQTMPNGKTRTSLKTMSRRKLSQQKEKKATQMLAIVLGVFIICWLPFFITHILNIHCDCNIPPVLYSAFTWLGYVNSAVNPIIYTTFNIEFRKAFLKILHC
Sequence of 5-hydroxytryptamine receptor 2A (P28223 whole entry): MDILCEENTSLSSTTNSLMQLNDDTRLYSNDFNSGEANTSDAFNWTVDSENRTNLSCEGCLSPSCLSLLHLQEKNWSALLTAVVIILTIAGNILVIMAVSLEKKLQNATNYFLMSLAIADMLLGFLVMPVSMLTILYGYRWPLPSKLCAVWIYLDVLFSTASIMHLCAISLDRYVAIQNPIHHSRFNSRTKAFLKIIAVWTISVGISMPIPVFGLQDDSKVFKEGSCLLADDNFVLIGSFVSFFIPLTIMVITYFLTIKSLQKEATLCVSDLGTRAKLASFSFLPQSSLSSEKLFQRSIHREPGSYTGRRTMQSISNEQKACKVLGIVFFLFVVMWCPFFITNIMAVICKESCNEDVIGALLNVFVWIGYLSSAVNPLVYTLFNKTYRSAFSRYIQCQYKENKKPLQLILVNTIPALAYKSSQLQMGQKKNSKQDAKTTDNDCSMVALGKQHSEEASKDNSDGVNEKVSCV
T2 sequence (P50406 whole entry): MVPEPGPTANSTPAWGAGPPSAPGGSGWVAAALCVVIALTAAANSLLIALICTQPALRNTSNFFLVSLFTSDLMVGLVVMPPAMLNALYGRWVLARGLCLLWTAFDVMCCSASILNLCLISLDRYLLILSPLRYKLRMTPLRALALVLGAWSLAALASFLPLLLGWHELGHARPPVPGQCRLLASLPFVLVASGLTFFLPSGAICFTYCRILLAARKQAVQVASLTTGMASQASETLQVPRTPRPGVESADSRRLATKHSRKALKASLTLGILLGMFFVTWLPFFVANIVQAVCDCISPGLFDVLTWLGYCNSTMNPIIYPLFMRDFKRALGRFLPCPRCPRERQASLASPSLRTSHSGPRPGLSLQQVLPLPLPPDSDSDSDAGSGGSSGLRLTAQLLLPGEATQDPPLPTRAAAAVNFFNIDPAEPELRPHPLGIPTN

| SMILES | Ki [1] | Ki (D(2) dopamine receptor) | Ki [2] | Ki [3] | Ki [4] | further results |
| --- | --- | --- | --- | --- | --- | --- |
| O=S(=O)(c1ccccc1)c1cnc2c(N3CCNCC3)cccc2c1 |  |  |  |  |  | Emax [5]: 2% |
| COc1ccc(S(=O)(=O)Nc2cc(Cl)cc(Cl)c2OC)cc1N1CCNCC1 |  |  |  |  |  | Activity (Rattus norvegicus [6]): Active |
| CN1CCN(c2nc(N)nc(C[Se]c3ccccc3)n2)CC1 |  | 0.506 µM |  |  |  |  |
| CN1CCN2c3ccccc3Cc3ccccc3C2C1 (stereo not drawn) |  |  |  |  |  | Emax [5]: 1% |
| Cc1ccc(C(C)C)c(OCc2nc(N)nc(N3CCN(C)CC3)n2)c1 |  |  |  | 0.011 µM |  | Activity [7]: 4; Activity (SH-SY5Y): Toxic; selectivity ratio at 72 h [8]: 100; fold change (FC) [9]: 0.55; Activity (Rattus norvegicus [20]): inactive; Activity (Rattus norvegicus [21]): 307; Emax [5]: 1%; Activity [10]: 4.67; Activity (Rattus norvegicus [22]): 20%; Selectivity ratio [11]: >4000; Kb [12]: 0.0046 µM; Activity (Rattus norvegicus [23]): 290; fold change (FC) [14]: 0.47; Activity (Rattus norvegicus [24]): 56; Activity (Rattus norvegicus [25]): 2833 cm |
| CC([Se]c1ccccc1)c1nc(N)nc(N2CCN(C)CC2)n1 (stereo not drawn) |  | 0.656 µM |  |  |  |  |
| CC(Oc1cccc(Cl)c1)c1nc(N)nc(N2CCN(C)CC2)n1 (stereo not drawn) | 8.36 µM | 0.566 µM | 3.44 µM | 0.118 µM | 0.59 µM |  |
| Cc1cc(Cl)ccc1OCc1nc(N)nc(N2CCN(C)CC2)n1 | 15.2 µM | 4.37 µM | 7.69 µM | 0.911 µM |  |  |
| Cc1ccc(OCc2nc(N)nc(N3CCN(C)CC3)n2)cc1 | 16.1 µM | 2.92 µM | 28.5 µM | 0.235 µM |  |  |

The remaining molecules from weak to strong by Ki [1], led by results:

| Ki [1] | Ki (D(2) dopamine receptor) | Ki [2] | Ki [3] | Ki [4] | SMILES | further results |
| --- | --- | --- | --- | --- | --- | --- |
| 98.4 µM | 50.1 µM | > 1000 µM | 3.57 µM | 11.6 µM | CN1CCN(c2nc(N)nc(CS(=O)(=O)c3ccccc3Cl)n2)CC1 |  |
| 38.7 µM | 1 µM | 4.54 µM | 0.023 µM | 1.83 µM | CC(Oc1ccccc1Cl)c1nc(N)nc(N2CCN(C)CC2)n1 (stereo not drawn) | Activity [7]: 11; Activity (SH-SY5Y): Toxic; selectivity ratio at 72 h [8]: 100; fold change (FC) [9]: 0.73; Emax [5]: 1%; Activity (Rattus norvegicus [15]): 46; Activity (Rattus norvegicus [16]): 1005 cm; Activity [10]: 8; Selectivity ratio [11]: >4000; Activity (Rattus norvegicus [17]): 269; Kb [12]: 0.003 µM; Activity (Rattus norvegicus [18]): 22%; fold change (FC) [14]: 1; Activity (Rattus norvegicus [19]): 227 |
| 10.7 µM | 0.74 µM | 15.1 µM | 0.207 µM | 2.27 µM | Cc1cccc(OCc2nc(N)nc(N3CCN(C)CC3)n2)c1 |  |
| 9.53 µM | 1.35 µM | 8.73 µM |  | 2.63 µM | CN1CCN(c2nc(N)nc(COc3ccccc3)n2)CC1 |  |
| 9.25 µM | 2.36 µM | 5.47 µM | 0.129 µM |  | CN1CCN(c2nc(N)nc(COc3ccccc3Cl)n2)CC1 |  |
| 5.84 µM | 1.22 µM | 3.58 µM | 0.355 µM | 0.197 µM | Cc1cc(OCc2nc(N)nc(N3CCN(C)CC3)n2)ccc1Cl |  |
| 5.82 µM | 0.674 µM | 7.5 µM | 0.148 µM |  | CN1CCN(c2nc(N)nc(COc3cccc(Cl)c3)n2)CC1 |  |
| 4.57 µM | 0.52 µM | 3.38 µM | 0.019 µM | 0.407 µM | CC(Sc1ccccc1Cl)c1nc(N)nc(N2CCN(C)CC2)n1 (stereo not drawn) | Activity [7]: 8.33; Activity (SH-SY5Y): Toxic; selectivity ratio at 72 h [8]: 100; fold change (FC) [9]: 0.94; Emax [5]: 1%; Activity [10]: 10.33; Selectivity ratio [11]: >4000; Kb [12]: 0.0029 µM; Activity (Rattus norvegicus [13]): inactive; fold change (FC) [14]: 0.76 |
| 3.8 µM | 1.23 µM | 1.61 µM | 0.128 µM |  | CN1CCN(c2nc(N)nc(COc3ccc(Cl)cc3Cl)n2)CC1 |  |
| 2.87 µM | 0.734 µM | 4.39 µM | 0.026 µM | 0.197 µM | CN1CCN(c2nc(N)nc(CSc3ccccc3)n2)CC1 |  |
| 0.614 µM | 0.329 µM | 1.68 µM | 0.126 µM |  | CN1CCN(c2nc(N)nc(CSc3ccccc3Cl)n2)CC1 |  |
| 0.514 µM | 4.25 µM | 14.2 µM | 0.087 µM | 17.2 µM | Cc1ccccc1OCc1nc(N)nc(N2CCN(C)CC2)n1 |  |
